From patent EP0696280B1, “SUBSTITUTED PYRROLIDIN-3-YL-ALKYL-PIPERIDINES USEFUL AS TACHYKININ ANTAGONISTS” (MERRELL PHARMACEUTICALS INC., priority 1993, dated 1994)
Read-outs that look alike come from different tables or passages of the source.

Assays:
NK1 receptor = molecular target: T1, NK1 receptor (Cavia porcellus, UniProt P30547); assay: Antagonism of iodinated tachykinin binding to NK1 receptor (125I-Bolton Hunter Lys-3 labeled substance P, guinea pig lung membranes)
T1 construct: Tissues or cells were homogenized with a Polytron in 15 volumes of 50 mM Tris-HCl buffer; tissue Keystone Biologicals, Cleveland, OH; host or cells: guinea pig lung membranes
Procedure: (§1) The NK1 receptor affinity of proposed tachykinin antagonists was devaluated in guinea pig lungs (Keystone Biologicals, Cleveland, OH), affinity for the NK2 receptor evaluated in HSKR-1 cells (which are mouse 3T3 fibroblasts expressing the human jejunal NK2 receptor) and NK-3 receptor affinity was evaluated in freshly collected guinea pig cerebral cortex. Tissues or cells were homogenized with a Polytron in 15 volumes of 50 mM Tris-HCl buffer (pH 7.4, 4°C) and centrifuged. The pellet was resuspended in Tris-HCl buffer and was centrifuged; the pellet was washed twice by resuspension. The final pellet was resuspended at a concentration of 40 mg/ml for tissues (guinea pig lung and cerebral cortex) and 20 mg/ml for cells in incubation buffer and remained at room temperature for at least 15 min prior to use. Receptor binding was initiated by addition of 250 µl membrane preparation in duplicate to 0.1 nM of the following radioligands: ^125I-Bolton Hunter Lys-3 labeled substance P; ^125iodohistidyl-1-neurokinin A; and ^125I-Bolton Hunter labeled Lys-4 eledoisin in a final volume of 500 µl of buffer containing 50 mM Tris-HCl (pH 7.4 at room temperature), 0.1% bovine serum albumin, 2 mM MnCl2, 40 µg/ml bacitracin, 4 µg/ml leupeptin and chymostatin, 1 µM thiorphan and various doses of the putative tachykinin antagonists. Incubations were performed at room temperature for 90 min (NK1 receptor assays) or 2 hr (NK2 and NK3 receptor assays); binding was terminated by addition of 50 mM Tris-HCl buffer (pH 7.4, 4°C) and filtration under vacuum through GF/B filters presoaked with 0.1% polyethyleneimine (NK1 receptor assays) or 0.5% bovine serum albumin (NK2 and NK3 receptor assays). Filter bound radioactivity was quantitated in a gamma counter. Nonspecific binding was defined as binding in the presence of 1 µM substance P, neurokinin A, or eledoisin. Specific binding was calculated by subtracting nonspecific binding from total binding. Competition of iodinated SP, NKA, or eledoisin binding by test compounds or standards was expressed as a percentage of this maximum competition. IC50 values (concentration required to inhibit 50% of receptor binding) were generated for each of the test compounds by nonlinear regression using an iterative curve fitting program (GraphPAD Inplot, San Diego, CA).

[1] = molecular target: T2, human jejunal NK2 receptor (Homo sapiens, UniProt P21452); assay: Antagonism of iodinated tachykinin binding to NK2 receptor (125iodohistidyl-1-neurokinin A, HSKR-1 cell membranes); settings: HSKR-1 cells (mouse 3T3 fibroblasts expressing human jejunal NK2 receptor); mean of several experiments; read-out: NK-2 IC50
T2 construct: expressed in transfected cells; host or cells: HSKR-1 cells (mouse 3T3 fibroblasts)
T2 sequence (P21452 1-398): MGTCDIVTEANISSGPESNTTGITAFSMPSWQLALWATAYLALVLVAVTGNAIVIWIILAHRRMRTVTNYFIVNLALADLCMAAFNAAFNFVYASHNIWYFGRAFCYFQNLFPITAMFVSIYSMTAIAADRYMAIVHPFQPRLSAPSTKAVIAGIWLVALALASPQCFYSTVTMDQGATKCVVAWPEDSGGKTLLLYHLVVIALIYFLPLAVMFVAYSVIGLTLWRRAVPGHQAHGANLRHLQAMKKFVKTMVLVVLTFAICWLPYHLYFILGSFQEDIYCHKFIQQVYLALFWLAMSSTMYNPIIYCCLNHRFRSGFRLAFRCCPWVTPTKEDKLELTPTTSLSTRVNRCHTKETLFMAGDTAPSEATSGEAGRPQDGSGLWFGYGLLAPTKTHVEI
Procedure: as §1

NK-3 receptor = molecular target: T3, NK-3 receptor (Cavia porcellus, UniProt P30098); assay: Antagonism of iodinated tachykinin binding to NK-3 receptor (125I-Bolton Hunter labeled Lys-4 eledoisin, guinea pig cerebral cortex membranes)
T3 construct: freshly collected guinea pig cerebral cortex; from tissue; host or cells: guinea pig cerebral cortex membranes
T3 sequence (P30098 1-440): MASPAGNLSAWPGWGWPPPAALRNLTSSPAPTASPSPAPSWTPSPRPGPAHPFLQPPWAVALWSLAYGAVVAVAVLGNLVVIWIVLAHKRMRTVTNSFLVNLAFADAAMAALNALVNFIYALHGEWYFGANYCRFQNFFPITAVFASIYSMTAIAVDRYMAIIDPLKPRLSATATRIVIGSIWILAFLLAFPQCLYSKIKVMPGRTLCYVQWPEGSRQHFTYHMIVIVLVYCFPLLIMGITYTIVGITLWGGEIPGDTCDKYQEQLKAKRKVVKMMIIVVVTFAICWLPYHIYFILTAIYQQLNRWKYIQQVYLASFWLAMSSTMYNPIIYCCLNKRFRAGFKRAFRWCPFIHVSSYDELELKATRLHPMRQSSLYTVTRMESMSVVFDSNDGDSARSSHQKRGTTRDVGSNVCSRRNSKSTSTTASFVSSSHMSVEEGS
Procedure: as §1

[2] = test system: capsaicin-induced respiratory effects; assay: Antagonism of capsaicin aerosol induced respiratory effects in conscious guinea pigs (whole body plethysmography); format: in vivo, guinea pig; settings: for DYSPNEA ONSET / MAXIMUM PRESSURE INCREASE (mmH2O) / SRE NUMBER*: mean and SEM; for SRE NUMBER*: number of coughs/gasps during 19 min exposure
Procedure: In vivo experiments were performed using male Duncan Hartley guinea pigs (250-350g). Changes in conscious breathing patterns were monitored in four animals simultaneously using modified whole body plethysmography consisting of four small plexiglass boxes each connected to a reference box via Validyne DP 45-16 differential pressure transducers. The 4 boxes were equipped with an air supply line (also used for aerosol delivery) and an exhaust air line. Supply and exhaust lines were of the same length and narrow bore and arose from a common supply chamber and vented to a common exhaust chamber. This system was used to ensure that fluctuations in supply air and atmospheric pressure would remain in phase and be eliminated from the net signal by the differential pressure transducers. The analog pressure signals were digitalized via a Data Translation DT2821 A to D board. Data were collected at a rate of 100 samples/second/animal. Each cycle of pressure change was analyzed using the following parameters: rising and falling slope determined between minimum and maximum pressures, the ratio of rising over falling slope, and the magnitude of the change between initial trough pressure and peak cycle pressure. Using these values (and observing the animals) the pressure cycles were characterized into normal breaths, forced exhalations (apparent by abdominal heaving), significant respiratory events (SREs; usually coughs, less often sneezes or gasps which were characterized by transient, extremely large pressure increases which were distinguishable from noise) and movement/noise with a PCAT 286 running a System V UNIX operating system. Dyspnea was defined as a significant, sustained increase in plethysmograph pressure which was associated with an observable shift to labored breathing in the animal.
During the course of a typical experiment in which airway responsiveness to various bronchoconstricting agents was examined, aerosols were delivered for 19 min (0.33 ml/min) using a DeVilbiss Ultraneb 99 ultrasonic nebulizer and animals monitored during this time. Prior to nebulization, 1 min of resting breathing was collected to establish a baseline pressure. […] The vehicle for nebulization of all bronchoconstrictive agents was phosphate buffered saline (pH 7.4) which elicited no respiratory effects itself. Putative tachykinin antagonists were administered either (i.v.) 20 min prior to onset of aerosol exposure or orally 1 hour prior to onset (to guinea pigs after an overnight fast).
Capsaicin aerosol is known to promote release of the tachykinins SP and NKA from sensory nerves in the airways of guinea pigs which may then act upon NK1 and NK2 receptors, respectively to elicit respiratory effects. […]
(§2) Values are mean and SEM of data derived from number of animals indicated in parenthesis. Putative tachykinin antagonists were administered intravenously 20 min prior to initiation of capsaicin aerosol (0.001%). *SRE number indicates the number of coughs/gasps which occurred during the 19 min capsaicin exposure period.
as §2, with “by oral gavage 1 hr” for “intravenously 20 min”

[3] = 25 mg/kg by oral gavage 1 hr prior to capsaicin aerosol (0.001%)
[4] = 50 mg/kg by oral gavage 1 hr prior to capsaicin aerosol (0.001%)
[5] = guinea pig lungs, mean of several experiments, read-out: NK-1 IC50
[6] = guinea pig cerebral cortex, mean of several experiments, read-out: NK-3 IC50

T1 sequence (P30547 whole entry): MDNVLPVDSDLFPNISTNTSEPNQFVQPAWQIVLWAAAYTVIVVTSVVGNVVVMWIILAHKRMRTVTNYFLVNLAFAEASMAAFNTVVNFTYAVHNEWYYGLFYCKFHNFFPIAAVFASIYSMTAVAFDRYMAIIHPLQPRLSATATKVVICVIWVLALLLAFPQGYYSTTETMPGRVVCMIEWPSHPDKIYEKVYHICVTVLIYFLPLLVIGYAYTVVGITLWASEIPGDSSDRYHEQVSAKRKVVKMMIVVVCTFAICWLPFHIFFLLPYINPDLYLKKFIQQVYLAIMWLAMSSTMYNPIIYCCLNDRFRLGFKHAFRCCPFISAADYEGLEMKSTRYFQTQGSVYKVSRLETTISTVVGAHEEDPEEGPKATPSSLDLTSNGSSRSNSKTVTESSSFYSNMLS

SMILES | IC50 [1] | IC50 (NK-3 receptor) | IC50 (NK1 receptor; [5]) | IC50 (NK-3 receptor; [6]) | other results
COc1cccc(OC)c1C(=O)N1CCC(CCN2CCC(C(N)=O)(c3ccccc3)CC2)(c2ccc(Cl)c(Cl)c2)C1 (stereo not shown) [Example 5, 1-[2-[3-(3,4-dichloro-phenyl)-1-(2,6-dimethoxy-benzoyl)-pyrrolidin-3-yl]-ethyl]-4-phenyl-piperidine-4-carboxylic acid amide] | 41 nM | 65 nM |  |  | IC50 (NK1 receptor): 20 nM; DYSPNEA INCIDENCE [2, 3]: 66.7% (6/9); DYSPNEA ONSET [2, 3]: 253 ± 47 s; MAXIMUM PRESSURE INCREASE (mmH2O) [2, 3]: 0.7 ± 0.1 mmH2O; SRE NUMBER* [2, 3]: 4.4 ± 1.2; DYSPNEA INCIDENCE [2, 4]: 85.7% (6/7); DYSPNEA ONSET [2, 4]: 384 ± 85 s; MAXIMUM PRESSURE INCREASE (mmH2O) [2, 4]: 0.5 ± 0.1 mmH2O; SRE NUMBER* [2, 4]: 4.9 ± 1.9
COC(=O)[C@@H](NC(=O)C1(c2ccccc2)CCN(CCC2(c3ccc(Cl)c(Cl)c3)CCN(C(=O)c3ccccc3)C2)CC1)[C@@H](C)O (stereo partly shown) [Example 7, 2-[(1-(2-[1-benzoyl-3-(3,4-dichloro-phenyl)-pyrrolidin-3-yl]-ethyl)-4-phenyl-piperidine-4-carboxyl)-amino]-3-hydroxy butyric acid methyl ester] | 10 nM |  | 240 nM | 202 nM | 
COc1ccc(C(=O)N2CCC(CCN3CCC(C(N)=O)(c4ccccc4)CC3)(c3ccc(Cl)c(Cl)c3)C2)c(OC)c1 (stereo not shown) [Example 2, 1-[2-[3-(3,4-dichloro-phenyl)-1-(2,4-dimethoxy-benzoyl)-pyrrolidin-3-yl]-ethyl]-4-phenyl-piperidine-4-carboxylic acid amide] | 34 nM | 65 nM | 131 nM |  | 
NC(=O)C1(c2ccccc2)CCN(CCC2(c3ccc(Cl)c(Cl)c3)CC(=O)N(Cc3ccccc3)C2)CC1 (stereo not shown) [Example 11, 1-[2-[1-benzyl-3-(3,4-dichloro-phenyl)-5-oxo-pyrrolidin-3-yl]-ethyl]-4-phenyl-piperidine-4-carboxylic acid amide] | 127 nM |  | 196 nM | 203 nM | 
COc1cccc(OC)c1C(=O)N1CCC(CCN2CCC3(CC2)C(=O)NCN3c2ccccc2)(c2ccc(Cl)c(Cl)c2)C1 (stereo not shown) [Example 9, 8-[2-[3-(3,4-dichloro-phenyl)-1-(2,6-dimethoxy-benzoyl)-pyrrolidin-3-yl]-ethyl]-1-phenyl-1,3,8-triaza-spiro[4.5]decane-4-one] | 118 nM |  | 49 nM | 183 nM | 
COc1ccccc1CC(=O)N1CCC(CCN2CCC(C(N)=O)(c3ccccc3)CC2)(c2ccc(Cl)c(Cl)c2)C1 (stereo not shown) [Example 4, 1-(2-[3-(3,4-dichloro-phenyl)-1-[2-(2-methoxy-phenyl)-acetyl]-pyrrolidin-3-yl]-ethyl)-4-phenyl-piperidine-4-carboxylic acid amide] | 74 nM | 41 nM |  |  | 
O=C(c1ccccc1)N1CCC(CCN2CCC3(CC2)C(=O)NCN3c2ccccc2)(c2ccc(Cl)c(Cl)c2)C1 (stereo not shown) [Example 10, 8-[2-[3-(3,4-dichloro-phenyl)-1-benzoyl-pyrrolidin-3-yl]-ethyl]-1-phenyl-1,3,8-triaza-spiro[4.5]-decane-4-one] | 11 nM |  | 255 nM | 1190 nM | 
